Data on 26 compounds can be found in US7576094B2, “Spiro derivatives as lipoxygenase inhibitors” (Eli Lilly and Company, priority 2004, dated 2009).

The IC50 is the concentration that inhibits the measured activity by half. For orientation: EC50 means the concentration that produces a half-maximal response.

For test [1], the target named is T1, human recombinant 5-Lipoxygenase (Homo sapiens, UniProt P09917).
T1 sequence (P09917 1-674): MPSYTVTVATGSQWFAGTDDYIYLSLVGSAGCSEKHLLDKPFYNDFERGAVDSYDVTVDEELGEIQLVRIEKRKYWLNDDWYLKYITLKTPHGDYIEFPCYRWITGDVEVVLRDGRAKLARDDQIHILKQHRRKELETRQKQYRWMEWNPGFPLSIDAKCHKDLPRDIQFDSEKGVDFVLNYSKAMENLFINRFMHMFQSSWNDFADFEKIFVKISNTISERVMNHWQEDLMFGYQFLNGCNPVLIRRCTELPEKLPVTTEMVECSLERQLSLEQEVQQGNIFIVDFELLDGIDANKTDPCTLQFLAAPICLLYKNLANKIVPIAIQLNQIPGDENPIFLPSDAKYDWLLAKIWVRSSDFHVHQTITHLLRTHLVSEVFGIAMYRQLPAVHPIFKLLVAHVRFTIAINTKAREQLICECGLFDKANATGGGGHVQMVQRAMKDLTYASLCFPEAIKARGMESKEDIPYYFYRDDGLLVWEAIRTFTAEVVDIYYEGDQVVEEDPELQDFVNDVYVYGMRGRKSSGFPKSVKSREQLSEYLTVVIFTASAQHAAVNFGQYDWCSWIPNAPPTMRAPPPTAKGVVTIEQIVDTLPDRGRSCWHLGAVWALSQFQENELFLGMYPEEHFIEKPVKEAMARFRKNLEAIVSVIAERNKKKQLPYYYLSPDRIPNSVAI
The experiment in a line: 5-Lipoxygenase Enzyme Assay. The class given is biochemical. The conditions noted are these: 70 μM arachidonic acid, 10 minute incubation at room temperature, FOX reagent, absorbance at 620 nm; read-out: inhibition of 5-Lipoxygenase with an IC50. The source says: This procedure was used for measuring the enzymatic activity of human recombinant 5-Lipoxygenase using a colorimetric method based on the ferric oxidation of xylenol orange.
• 96 well flat bottom microfilter plates (VWR, Catalog # 62402-933 9295) • Lipoxygenase screening assay buffer (Cayman, Catalog # 760710) • Human recombinant 5-Lipoxygenase (Cayman, Catalog # 60402) • Arachidonic Acid (Sigma, Catalog # A3555) • Xylenol orange tetra sodium salt (Aldrich, Catalog # 227854) • Iron (II) sulfate heptahydrate (Sigma, Catalog # F7002) • Sulfuric acid (95-98%) [18 M] • Methanol Procedure
Human recombinant 5-Lipoxygenase (Cayman Cat # 60402) was used in this assay. The test compound and/or vehicle was added to 0.5 μL 5-Lipoxygenase in 50 mM Tris-HCl buffer, pH 7.4. The reaction was initiated by addition of 70 μM arachidonic acid in Tris-HCl buffer, pH 7.4, and terminated after a 10 minute incubation at room temperature by addition of FOX reagent (25 mM sulfuric acid, 100 μM xylenol orange, 100 μM iron (II) sulfate, methanol:water 9:1). The yellow color of acidified xylenol orange was converted to a blue color by the lipid hydroperoxide-mediated oxidation of Fe^2+ ions and the interaction of the resulting Fe^3+ ions with the dye. The complex was allowed to form during a 1 hour incubation at room temperature with shaking. Absorbance of the Fe^3+ complex was then measured at […] using a spectrophotometer.
Negative controls contained enzyme during the incubation step but substrate was not added until after the FOX reagent. Compounds were screened at 5 concentrations in triplicate starting at 10 μM

The test system of test [2] is LTB4 production in human whole blood. The experiment in a line: Inhibition of LTB4 Production in Blood. The class given is cell-based. The conditions noted are these: 1 h, 20 μM A23187, 60 minutes at 37° C., LTB4 in plasma by ELISA, read-out: protection against LTB4 at an EC50. On the procedure: • Human whole blood (Na citrate) (Stanford Blood Center) • A23187, (Sigma, Cat# C-7522) • Leukotriene B4 EIA reagents (Cayman Chemical, Cat # 520111) • BWA4C (Sigma, Cat # B7559) Procedure Preparation of A23187:
A23187 was prepared as a 10 mM stock solution in DMSO (aliquots can be stored at −20° C.). On the day of the assay the stock solution was diluted as follows: 70 μL 10 mM stock added to 1.6 mL plasma to give a working concentration of 0.42 mM.
From a 30 mM stock solution in DMSO, test articles were diluted to a working concentration of 600 μM in PBS (i.e. 10 μL stock solution+490 μL PBS). This is the highest concentration (gives a final testing concentration of 30 μM). From this 600 μM solution test articles were serially diluted 1:3 in PBS to give a dose-response curve. 10 μL of each concentration of test article was then added to 4 wells of a 96-well plate (i.e. testing in quadruplicate). A positive control compound, BWA4C was used in every assay.
Human whole blood was added to the plates containing compounds (190 μL per well) and mixed well. The blood was incubated with compound at 37° C. for 15 minutes. Following this incubation, 10 μL of 0.42 mM A23187 was added to each well except the negative control wells to give a final calcium ionophore concentration of 20 μM. The plates were then incubated at 37° C. for 60 minutes. After the incubation period, plates were centrifuged for 15 min at 2000 g at 4° C. in sealed microplate buckets. Plasma was then removed for quantitation of LTB4 levels by ELISA.
LTB4 levels in the plasma were determined using a commercially available ELISA kit from Cayman Chemicals. The ELISA was run according to the manufacturer's instructions. The LTB4 levels in the vehicle control sample were then compared to those in which the test article had been added. From this a percent inhibition of LTB4 production by each concentration of test article was calculated and the IC50 was determined.

The structures appear in SMILES notation.

`Cc1c(C)c2c(c(C)c1O)C(O)C1(CCC1)CO2` (stereo not drawn) [5,7,8-trimethylspiro[chroman-3,1′-cyclobutane]-4,6-diol]: in test [1], the IC50 was under 300 nM. Also, in test [2], the EC50 was under 10 µM. As to `CONCC1Cc2c(cc(C)c(O)c2C)OC12CCC2` (stereo not drawn) [3-[(methoxyamino)methyl]-5,7-dimethyl-3,4-dihydrospiro-[chromene-2,1′-cyclobutan]-6-ol], the EC50 in test [2] was under 10 µM. Same read-out and setting: then `Cc1c(O)c(C(C)C)cc2c1C(O)C1(CCC1)CO2` (stereo not drawn) [7-isopropyl-5-methylspiro[chroman-3,1′-cyclobutane]-4,6-diol], with under 10 µM. In the case of `Cc1c(O)c(C(C)C)c(CO)c2c1CCC1(CCC1)O2` [8-(hydroxymethyl)-7-isopropyl-5-methylspiro[chroman-2,1′-cyclobutan]-6-ol], the IC50 in test [1] is under 300 nM. Further, the EC50 in test [2] was under 10 µM.

`Cc1c(C)c2c(c(C)c1O)C(N(C)O)CC1(CCC1)O2` (stereo not drawn) [4-[hydroxy(methyl)amino]-5,7,8-trimethyl-3,4-dihydrospiro[chromene-2,1′-cyclobutan]-6-ol]: the IC50 in test [1] was under 300 nM. Further, in test [2], the EC50 is under 10 µM. As for `CCc1c(O)c(C)cc2c1C(NOC)CC1(CCC1)O2` (stereo not drawn) [5-ethyl-4-(methoxyamino)-7-methyl-3,4-dihydrospiro[chromene-2,1′-cyclobutan]-6-ol], the IC50 in test [1] is under 300 nM. Moreover, in test [2], the EC50 was under 10 µM. Regarding `Cc1cc2c(c(C)c1O)C(O)CC1(CCC1)O2` (stereo not drawn) [5,7-dimethyl-3,4-dihydrospiro[chromene-2,1′-cyclobutane]-4,6-diol], in test [2], the EC50 was under 10 µM.

In the case of `CC(C)=CCC/C(C)=C/Cc1c(O)c(C)c(C)c2c1CCC1(CCC1)O2` [5-(3,7-dimethylocta-2,6-dienyl)-7,8-dimethylspiro[chroman-2,1′-cyclobutan]-6-ol], the IC50 in test [1] is under 300 nM. For the same compound, the EC50 in test [2] is under 10 µM.

Take `CONC1CC2(CCC2)Oc2cc(C(C)C)c(O)c(C)c21` (stereo not drawn) [7-isopropyl-4-(methoxyamino)-5-methyl-3,4-dihydrospiro[chromene-2,1′-cyclobutan]-6-ol]: the IC50 in test [1] was under 300 nM. Moreover, the EC50 in test [2] is under 10 µM. Regarding `Cc1c(O)cc2c(c1C)N(CCCNC(=O)c1ccccc1)CC1(CCC1)C2` [N-(3-(6′-hydroxy-7′,8′-dimethyl-2′,4′-dihydro-1′H-spiro[cyclobutane-1,3′-quinoline]-1′-yl)propyl)benzamide], the IC50 in test [1] is under 300 nM. Also, the EC50 in test [2] was under 10 µM. Turning to `Cc1cc2c(c(C)c1O)C(O)C1(CCC1)CO2` (stereo not drawn) [5,7-dimethyl-4H-spiro[chromene-3,1′-cyclobutane]-4,6-diol], in test [2], the EC50 was under 10 µM. Regarding `CCc1cc2c(c(C)c1O)C(NOC)CC1(CCC1)O2` (stereo not drawn) [7-ethyl-4-(methoxyamino)-5-methyl-3,4-dihydrospiro[chromene-2,1′-cyclobutan]-6-ol], the IC50 in test [1] is under 300 nM. Also, the EC50 in test [2] is under 10 µM. On to `CCc1c(O)c(C(C)C)cc2c1C(O)CC1(CCC1)O2` (stereo not drawn) [5-ethyl-7-isopropylspiro[chroman-2,1′-cyclobutane]-4,6-diol], for which, in test [2], the EC50 was under 10 µM. Turning to `Cc1c(O)c(C(C)C)cc2c1[C@H](O)CC1(CCC1)O2` [(R)-7-isopropyl-5-methylspiro[chroman-2,1′-cyclobutane]-4,6-diol], the IC50 in test [1] is under 300 nM. The EC50 in test [2] is under 10 µM. Take `CCc1c(O)c(CC)c2c(c1CO)OC1(CCC1)CC2` [(Z)-5,7-diethyl-8-(hydroxymethyl)-3,4-dihydrospiro[chromene-2,1′-cyclobutan]-6-ol]: the concentration for half-maximal inhibition (IC50) in test [1] was under 300 nM. Further, the EC50 in test [2] was under 10 µM. In the case of `COC1CC2(CCC2)Oc2cc(C(C)C)c(O)c(C)c21` (stereo not drawn) [7-isopropyl-4-methoxy-5-methylspiro[chroman-2,1′-cyclobutan]-6-ol], in test [1], the IC50 was under 300 nM. For the same compound, the EC50 in test [2] is under 10 µM. As to `CCc1cc2c(c(CC)c1O)[C@@H](O)CC1(CCC1)O2` [(S)-5,7-diethylspiro[chroman-2,1′-cyclobutane]-4,6-diol], the half-maximal inhibitory concentration (IC50) in test [1] was under 300 nM. Also, the EC50 in test [2] is under 10 µM. `Cc1c(O)cc2c(c1C)N(c1ccc(O)cc1)C1(CC2)CC1` [1′-(4-hydroxyphenyl)-7′,8′-dimethyl-3′,4′-dihydro-1′H-spiro[cyclopropane-1,2′-quinolin]-6′-ol]: the IC50 in test [1] was under 300 nM. Further, the EC50 in test [2] was under 10 µM. Consider `Cc1cc2c(c(C)c1O)C=C(c1nc(C)c(C)[nH]1)C1(CCC1)O2` [5,7-dimethyl-3-(-(4,5-dimethyl-1H-imidazol-2-yl)spiro[chromene-2,1′-cyclobutan]-6-ol], for which, in test [1], the IC50 was under 300 nM. Besides, the EC50 in test [2] was under 10 µM. In the case of `Cc1ccc(S(=O)(=O)NCCCN2CC3(CCC3)Cc3cc(O)c(C)c(C)c32)cc1` [N-(3-(6′-hydroxy-7′,8′-dimethyl-2′,4′-dihydro-1′H-spiro[cyclobutane-1,3′-quinoline]-1′-yl)propyl)-4-methylbenzenesulfonamide], the 50% inhibitory concentration (IC50) in test [1] was under 300 nM. Also, the concentration for a half-maximal effect (EC50) in test [2] is under 10 µM. On the same counts, the results for `Cc1c(O)c(C(C)C)cc2c1C(O)CC1(CCC1)O2` (stereo not drawn) [7-isopropyl-5-methylspiro[chroman-2,1′-cyclobutane]-4,6-diol] are under 300 nM and under 10 µM. For the compound `Cc1cc2c(c(C)c1O)CCC1(CCC1)N2Cc1ccc2ccccc2n1` [5′,7′-dimethyl-1′-(quinolin-2-ylmethyl)-3′,4′-dihydro-1′H-spiro[cyclobutane-1,2′-quinolin]-6′-ol], the IC50 in test [1] was under 300 nM. Also, the EC50 in test [2] is under 10 µM.

On to `Cc1ccc(S(=O)(=O)NCCN2CC3(CCC3)Cc3cc(O)c(C)c(C)c32)cc1` [N-(2-(6′-hydroxy-7′,8′-dimethyl-2′,4′-dihydro-1′H-spiro[cyclobutane-1,3′-quinoline]-1′-yl)ethyl)-4-methylbenzenesulfonamide], for which the IC50 in test [1] was under 300 nM. Moreover, the EC50 in test [2] is under 10 µM. Consider `CCc1cc2c(c(CC)c1O)[C@H](O)CC1(CCC1)O2` [(R)-5,7-diethylspiro[chroman-2,1′-cyclobutane]-4,6-diol], for which, in test [1], the IC50 is under 300 nM. Moreover, the half-maximal effective concentration (EC50) in test [2] is under 10 µM. As for `Cc1c(O)c(C)c2c(c1CO)OC1(CCC1)CC2` [8-(hydroxymethyl)-5,7-dimethyl-3,4-dihydrospiro[chromene-2,1′-cyclobutan]-6-ol], the EC50 in test [2] was under 10 µM. With `Cc1cc2c(c(C)c1O)C(N(C)O)CC1(CCC1)O2` (stereo not drawn) [4-[hydroxy(methyl)amino]-5,7-dimethyl-3,4-dihydrospiro[chromene-2,1′-cyclobutan]-6-ol], the EC50 in test [2] was under 10 µM.
